Data from patent US20240122872A1, “COMPOSITIONS AND METHODS FOR TREATMENT OF MICROBIAL INFECTIONS” (EpiTop, Inc., priority 2022, published 2024).
Where two headings read alike, the source gives them in different places.

Tests used:
[1] = tested on: coronavirus 229E (VR-740); test: Coronavirus 229E-mediated destruction of human fibroblasts (microscopy); format: cell-based; conditions: 229E 0.05 pfu/cell, 3 days or 5 days
Experimental: Normal human lung fibroblst (ATCC.org, CCL-191) were seeded at 1×10^5 cells/well in 24 well plates (Becton Dickinson, Torreyana, CA) and allowed to grow to confluence overnight at 37° C., 5% CO2 in Earle's MEM with 10% fetal calf serum (FCS). To examine whether thujopsene prevents coronavirus (229E)-induced destruction of fibroblast, fibroblasts were incubated with thujopsene (0.00, 0.01 or 0.02%) and 229E (0.05 pfu/cell) for 3 days or 5 days at 37° C. and 5% CO2. Then cell images (x25 magnification) were taken with the microscopy (Leica, Wetzler, Germany).

coronavirus (229E-VR740) = test: Relative gene expression of coronavirus 229E in human fibroblasts (real time RT-PCR); format: cell-based; conditions: 0.01% or 0.02% thujopsene, 24 hours
Experimental: Human fibroblasts (Atcc.org, CCL-191) were treated with coronavirus (229E) and 0.01% or 0.02% of thujopsene for 24 hours, and then RNAs were isolated and PCRs were performed. Total RNA was isolated according to manufacturer's guidelines. RNeasy Mini Kits (Qiagen, Germantown, MD) were used according to the manufacturer's protocol to isolate RNA. RNA was reverse transcribed into cDNA using SuperScript® VILO™ MasterMix according to manufacturer's protocol and DNA was isolated according to manufacturer's guidelines. cDNAs were analyzed by real time RT-PCR by using an ABI Prism 7300 sequence detector.

[2] = tested on: Streptococcus pyogenes (ATCC BAA-19615); test: Bactericidal assay (colony count), S. pyogenes; conditions: 2 hours at 37° C.; concentration as low as 0.0001%; thujopsene (0.001%), totarol (0.0001%) or combination
HSV-1 = HSV-1 plaque assay (virus incubated with thujopsene, BS-C-1 cells); format: cell-based
Experimental: BS-C-1 African green monkey kidney cells were seeded at 2×10^5 cells/well in 24 well plates (Becton Dickinson, Torreyana, CA) and allowed to grow to confluence overnight at 37° C., 5% CO2 in Earle's MEM with 10% fetal calf serum (FCS). To examine the effects of thujopsene, 0, 0.01, and 0.02% of thujopsene were incubated with […] HSV-1 for 2 or 4 hours, at 37° C. and 5% CO2. For the plaque assay, the medium was removed and wells were overlaid with 0.5 ml 4% buffered formalin, allowed to fix for 10 minutes at room temperature. The formalin was removed and 0.5 ml 0.1% crystal violet in PBS was added to the wells for 5 minutes at room temperature. Wells were then aspirated and the air-dried for visualization of plaques.

Vaccinia virus (VV) = format: cell-based

SMILES	Cellular structure of fibroblasts after treatment with coronavirus 229E ([1]; 0.01% thujopsene)	Cellular structure of fibroblasts after treatment with coronavirus 229E ([1]; 0.02% thujopsene)	Relative gene expression of 229E (coronavirus VR740) (coronavirus (229E-VR740); 0.01 pfu/cell)	Relative gene expression of 229E (coronavirus VR740) (coronavirus (229E-VR740); 0.05 pfu/cell)	Inhibition of S. Pyogenes [2]	Decrease of titers of virus (HSV-1; 2-hour incubation with 0.01% thujopsene)	Decrease of titers of virus (HSV-1; 2-hour incubation with 0.01% thujopsene (first statement))	Decrease of titers of virus (HSV-1; 4-hour incubation with 0.01% thujopsene)	Decrease of titers of virus (Vaccinia virus (VV); 2-hour incubation with 0.02% thujopsene)	Decrease of titers of virus (Vaccinia virus (VV); 4-hour incubation with 0.02% thujopsene)
CC1=CC[C@]2(C)CCCC(C)(C)[C@@]23C[C@@H]13 [thujopsene]	the cellular structures were maintained	the cellular structures were maintained	decreased in a dose-dependent manner	decreased in a dose-dependent manner	significantly inhibited	at least 90%	at least 50%	at least 90%	at least 25%	at least 25%
CC(C)c1c(O)ccc2c1CC[C@H]1C(C)(C)CCC[C@]21C [totarol]					significantly inhibited					
